Measurements: patent US10597388B2, “Pyridazinone herbicides” (FMC CORPORATION, priority 2014, dated 2020)

Legend:
Assay type in all cases: in vivo
corn (Zea mays) [1] = assay: Test A greenhouse herbicide test, pre- and postemergence; conditions: Postemergence
Outline: (§1)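 Visual injury ratings, 0 (no effect) to 100 (complete control), versus untreated plants after roughly 10 d in a greenhouse. Compounds, formulated in a surfactant-containing non-phytotoxic solvent, were sprayed on loam–sand soil after sowing (pre) or on one- to two-leaf plants 2–10 cm tall (post).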

[2] = tested on: foxtail, giant (giant foxtail, Setaria faberii); assay: as above
Outline: as §1

[3] = tested on: ryegrass, Italian (Italian ryegrass, Lolium multiflorum); assay: as above
Outline: as §1

[4] = tested on: wheat (Triticum aestivum); assay: as above; conditions: Postemergence
Outline: as §1

[5] = tested on: blackgrass (Alopecurus myosuroides); assay: Test C greenhouse herbicide test, pre- and postemergence
Outline: (§2)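 Greenhouse pots; pre-em on seeded loam:sand blend, post-em on 2–18 cm plants (1–4 leaf) in sphagnum peat/vermiculite medium. Formulation: non-phytotoxic solvent + surfactant. Read-out: visual % control (0–100) vs controls at 13–15 d.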

corn (Zea mays) [6] = assay: as above
Outline: as §2

[7] = tested on: nutsedge, yellow (yellow nutsedge, Cyperus esculentus); assay: as above
Outline: as §2

[8] = tested on: pigweed (Amaranthus retroflexus); assay: as above
Outline: as §2

soybean (Glycine max) = assay: as above
Outline: as §2

[9] = tested on: velvetleaf (Abutilon theophrasti); assay: as above
Outline: as §2

[10] = tested on: waterhemp (common waterhemp, Amaranthus rudis); assay: as above
Outline: as §2

[11] = 125 g ai/ha, 0 to 100 scale where 0 is no effect and 100 is complete control
[12] = 500 g ai/ha, visual rating after approx. 10 d, 0 to 100 scale (0 no effect, 100 complete control)
[13] = Postemergence, 125 g ai/ha, 0 to 100 scale where 0 is no effect and 100 is complete control
[14] = Postemergence, 500 g ai/ha, visual rating after approx. 10 d, 0 to 100 scale (0 no effect, 100 complete control)
[15] = Preemergence, 125 g ai/ha, 0 to 100 scale where 0 is no effect and 100 is complete control
[16] = Preemergence, 500 g ai/ha, 0 to 100 scale where 0 is no effect and 100 is complete control
[17] = Postemergence, 31 g ai/ha, scale 0 to 100 (0 no effect, 100 complete control)
[18] = Postemergence, 62 g ai/ha, 0 to 100 scale (0 no effect, 100 complete control)
[19] = Postemergence, 250 g ai/ha, scale 0 to 100, 0 no effect, 100 complete control, 13 to 15 d
[20] = Preemergence, 31 g ai/ha, scale 0 to 100, 0 is no effect, 100 is complete control
[21] = Preemergence, 62 g ai/ha, scale 0 to 100, 0 is no effect, 100 is complete control
[22] = Preemergence, 125 g ai/ha, scale 0 to 100, 0 is no effect, 100 is complete control
[23] = Preemergence, 250 g ai/ha, scale 0 to 100, 0 no effect, 100 complete control
[24] = postemergence, 125 g ai/ha, scale 0 to 100, 0 no effect, 100 complete control

Cc1nn(C)c(=O)c(-c2ccc(Cl)c3ccccc23)c1O [Compound 139]
Plant response rating, Corn (corn (Zea mays) [1]; [11]): 30 | Plant response rating, Corn (corn (Zea mays) [1]; [12]): 40 | Plant response rating, Foxtail, Giant [2, 13]: 70 | Plant response rating, Foxtail, Giant [2, 14]: 100 | Foxtail, Giant plant response rating [2, 15]: 60 | Plant response rating, Foxtail, Giant [2, 16]: 100 | Plant response rating, Ryegrass, Italian [3, 13]: 100 | Plant response rating, Ryegrass, Italian [3, 14]: 100 | Plant response rating, Ryegrass, Italian [3, 16]: 100 | Plant response rating, Wheat [4, 11]: 30 | Plant response rating, Wheat [4, 12]: 30 | Plant response rating, Blackgrass [5, 17]: 20 | Blackgrass plant response rating [5, 18]: 50 | Plant response rating, Blackgrass [5, 19]: 10 | Plant response rating, Blackgrass [5, 20]: 50 | Plant response rating, Blackgrass [5, 21]: 55 | Plant response rating, Blackgrass [5, 22]: 60 | Blackgrass plant response rating [5, 23]: 90 | Blackgrass plant response rating [5, 24]: 60 | Plant response rating, Corn (corn (Zea mays) [6]; [17]): 5 | Corn plant response rating (corn (Zea mays) [6]; [18]): 0 | Plant response rating, Corn (corn (Zea mays) [6]; [19]): 15 | Plant response rating, Corn (corn (Zea mays) [6]; [20]): 0 | Plant response rating, Corn (corn (Zea mays) [6]; [21]): 0 | Plant response rating, Corn (corn (Zea mays) [6]; [22]): 10 | Corn plant response rating (corn (Zea mays) [6]; [23]): 15 | Corn plant response rating (corn (Zea mays) [6]; [24]): 15 | Plant response rating, Nutsedge, Yellow [7, 17]: 55 | Nutsedge, Yellow plant response rating [7, 18]: 75 | Plant response rating, Nutsedge, Yellow [7, 19]: 85 | Plant response rating, Nutsedge, Yellow [7, 20]: 65 | Plant response rating, Nutsedge, Yellow [7, 21]: 60 | Plant response rating, Nutsedge, Yellow [7, 22]: 85 | Nutsedge, Yellow plant response rating [7, 23]: 90 | Nutsedge, Yellow plant response rating [7, 24]: 70 | Plant response rating, Pigweed [8, 17]: 80 | Pigweed plant response rating [8, 18]: 95 | Plant response rating, Pigweed [8, 19]: 98 | Plant response rating, Pigweed [8, 20]: 70 | Plant response rating, Pigweed [8, 21]: 98 | Plant response rating, Pigweed [8, 22]: 100 | Pigweed plant response rating [8, 23]: 100 | Pigweed plant response rating [8, 24]: 98 | Plant response rating, Soybean (soybean (Glycine max); [17]): 45 | Soybean plant response rating (soybean (Glycine max); [18]): 55 | Plant response rating, Soybean (soybean (Glycine max); [19]): 60 | Plant response rating, Soybean (soybean (Glycine max); [20]): 25 | Plant response rating, Soybean (soybean (Glycine max); [21]): 35 | Plant response rating, Soybean (soybean (Glycine max); [22]): 60 | Soybean plant response rating (soybean (Glycine max); [23]): 80 | Soybean plant response rating (soybean (Glycine max); [24]): 65 | Plant response rating, Velvetleaf [9, 17]: 70 | Velvetleaf plant response rating [9, 18]: 80 | Plant response rating, Velvetleaf [9, 19]: 100 | Plant response rating, Velvetleaf [9, 20]: 60 | Plant response rating, Velvetleaf [9, 21]: 85 | Plant response rating, Velvetleaf [9, 22]: 100 | Velvetleaf plant response rating [9, 23]: 100 | Velvetleaf plant response rating [9, 24]: 95 | Plant response rating, Waterhemp [10, 17]: 98 | Waterhemp plant response rating [10, 18]: 100 | Plant response rating, Waterhemp [10, 19]: 100 | Plant response rating, Waterhemp [10, 20]: 100 | Plant response rating, Waterhemp [10, 21]: 100 | Plant response rating, Waterhemp [10, 22]: 100 | Waterhemp plant response rating [10, 23]: 100 | Waterhemp plant response rating [10, 24]: 100

COC(=O)Oc1c(OC)nn(C)c(=O)c1-c1c(C)ccc2ccccc12 [Compound 136]
Plant response rating, Corn (corn (Zea mays) [1]; [11]): 30 | Plant response rating, Corn (corn (Zea mays) [1]; [12]): 30 | Plant response rating, Foxtail, Giant [2, 13]: 90 | Plant response rating, Foxtail, Giant [2, 14]: 100 | Foxtail, Giant plant response rating [2, 15]: 80 | Plant response rating, Foxtail, Giant [2, 16]: 100 | Plant response rating, Ryegrass, Italian [3, 13]: 90 | Plant response rating, Ryegrass, Italian [3, 14]: 100 | Ryegrass, Italian plant response rating [3, 15]: 90 | Plant response rating, Ryegrass, Italian [3, 16]: 100 | Plant response rating, Wheat [4, 11]: 0 | Plant response rating, Wheat [4, 12]: 30 | Plant response rating, Blackgrass [5, 17]: 10 | Blackgrass plant response rating [5, 18]: 5 | Plant response rating, Blackgrass [5, 19]: 45 | Plant response rating, Blackgrass [5, 20]: 70 | Plant response rating, Blackgrass [5, 21]: 80 | Plant response rating, Blackgrass [5, 22]: 70 | Blackgrass plant response rating [5, 23]: 90 | Blackgrass plant response rating [5, 24]: 30 | Plant response rating, Corn (corn (Zea mays) [6]; [17]): 0 | Corn plant response rating (corn (Zea mays) [6]; [18]): 5 | Plant response rating, Corn (corn (Zea mays) [6]; [19]): 10 | Plant response rating, Corn (corn (Zea mays) [6]; [20]): 0 | Plant response rating, Corn (corn (Zea mays) [6]; [21]): 5 | Plant response rating, Corn (corn (Zea mays) [6]; [22]): 0 | Corn plant response rating (corn (Zea mays) [6]; [23]): 5 | Corn plant response rating (corn (Zea mays) [6]; [24]): 10 | Plant response rating, Nutsedge, Yellow [7, 17]: 15 | Nutsedge, Yellow plant response rating [7, 18]: 55 | Plant response rating, Nutsedge, Yellow [7, 19]: 85 | Plant response rating, Nutsedge, Yellow [7, 20]: 5 | Plant response rating, Nutsedge, Yellow [7, 21]: 35 | Plant response rating, Nutsedge, Yellow [7, 22]: 70 | Nutsedge, Yellow plant response rating [7, 23]: 80 | Nutsedge, Yellow plant response rating [7, 24]: 75 | Plant response rating, Pigweed [8, 17]: 75 | Pigweed plant response rating [8, 18]: 80 | Plant response rating, Pigweed [8, 19]: 98 | Plant response rating, Pigweed [8, 20]: 100 | Plant response rating, Pigweed [8, 21]: 100 | Plant response rating, Pigweed [8, 22]: 100 | Pigweed plant response rating [8, 23]: 100 | Pigweed plant response rating [8, 24]: 85 | Plant response rating, Soybean (soybean (Glycine max); [17]): 5 | Soybean plant response rating (soybean (Glycine max); [18]): 10 | Plant response rating, Soybean (soybean (Glycine max); [19]): 15 | Plant response rating, Soybean (soybean (Glycine max); [20]): 10 | Plant response rating, Soybean (soybean (Glycine max); [21]): 10 | Plant response rating, Soybean (soybean (Glycine max); [22]): 10 | Soybean plant response rating (soybean (Glycine max); [23]): 20 | Soybean plant response rating (soybean (Glycine max); [24]): 10 | Plant response rating, Velvetleaf [9, 17]: 75 | Velvetleaf plant response rating [9, 18]: 95 | Plant response rating, Velvetleaf [9, 19]: 98 | Plant response rating, Velvetleaf [9, 20]: 75 | Plant response rating, Velvetleaf [9, 21]: 95 | Plant response rating, Velvetleaf [9, 22]: 100 | Velvetleaf plant response rating [9, 23]: 100 | Velvetleaf plant response rating [9, 24]: 90 | Plant response rating, Waterhemp [10, 17]: 80 | Waterhemp plant response rating [10, 18]: 80 | Plant response rating, Waterhemp [10, 19]: 100 | Plant response rating, Waterhemp [10, 20]: 98 | Plant response rating, Waterhemp [10, 21]: 100 | Plant response rating, Waterhemp [10, 22]: 98 | Waterhemp plant response rating [10, 23]: 100 | Waterhemp plant response rating [10, 24]: 95
